In patent US9169241B2, “Quinolinyloxyphenylsulfonamides” (Max-Planck-Gesellschaft Zur Forderung der Wissenschaften …, priority 2009, dated 2015):
Read-outs that look alike come from different tables or passages of the source.

Assays:
[1] = test system: C8161; test: Apoptosis assay (Cellomics, nucleus condensation); format: cell-based; conditions: Homo sapiens, Table III, read-out: Apoptosis induction in C8161
Summary of the method: (§1)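 Cells at 5000 per well were stained live with Hoechst 33342 and imaged on an automated fluorescence microscope after 24 h and 48 h compound exposure (12.5 μM down to 0.39 μM, twofold steps; DMSO control). Per-nucleus intensity variation quantified nuclear condensation; cell counts were also recorded.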

[2] = test system: Hs578T; test: Apoptosis assay (Cellomics, nucleus condensation); format: cell-based; conditions: Homo sapiens, Hs-578T, Table III, read-out: Apoptosis induction in Hs578T
Summary of the method: as §1

[3] = test system: SF126; test: Apoptosis assay (Cellomics, nucleus condensation); format: cell-based; conditions: Homo sapiens, SF-126, Table III, read-out: Apoptosis induction in SF126
Summary of the method: as §1

[4] = test system: U138; test: Apoptosis assay (Cellomics, nucleus condensation); format: cell-based; conditions: Table III, read-out: Apoptosis induction in U138
Summary of the method: as §1

[5] = test system: U118; test: Apoptosis assay (Cellomics, nucleus condensation); format: cell-based; conditions: Table III, read-out: Apoptosis induction in U118
Summary of the method: as §1

[6] = test system: SF763; test: Apoptosis assay (Cellomics, nucleus condensation); format: cell-based; conditions: Table III, read-out: Apoptosis induction in SF763
Summary of the method: as §1

[7] = test system: Hs578T; test: Cell vitality assay (ATP assay, CellTiter-Glo); format: cell-based; conditions: Homo sapiens, Hs-578T, 72 h
Summary of the method: (§2)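 1000 cells/well were exposed to compound at 12.5 μM down to 0.195 μM (twofold steps) or DMSO for 72 h. ATP was then measured by luminescence after 10 min reagent lysis at room temperature. IC50 was taken as the concentration giving 50% of the DMSO-control ATP level.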

[8] = test system: SF126; test: Cell vitality assay (ATP assay, CellTiter-Glo); format: cell-based; conditions: Homo sapiens, SF-126; SF126, 72 h; Table IIa; read-out: IC50 ATP-Assay after 72 h SF126
Summary of the method: as §2

[9] = test system: U118; test: Cell vitality assay (ATP assay, CellTiter-Glo); format: cell-based; conditions: U118, 72 h; Table IIa; read-out: IC50 ATP-Assay after 72 h U118
Summary of the method: as §2

[10] = test system: Hs578T; test: Matrigel outgrowth assay/branching assay; format: cell-based; conditions: Homo sapiens, Hs-578T; HS578T cell line; Table Ib; read-out: Total branching inhibition in Matrigel HS578T
Summary of the method: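 Cells (5000/well) were seeded onto polymerized 3 mg/ml Matrigel with compound at 3.125, 1.56 or 0.78 μM, or DMSO. Imaging by inverted microscopy at 48, 72 and 96 h scored invasive branching. Only concentrations giving total branching inhibition counted as positive.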

[11] = test system: indicated cell line; test: Wound healing migration assay (Table IV); format: cell-based; conditions: compounds at 12.5, 6.25, 3.125 μM, 48 h-72 h
Summary of the method: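 Cells seeded at 150000/24 well, grown to monolayer overnight, scratched with a pipette tip, then treated with compound at 12.5, 6.25 or 3.125 μM versus DMSO. Stopped by crystal violet fixation at 48-72 h once control wounds closed; IC50 taken as 50% wound size between t0 and t48 or t72.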

[12] = Hs578T, Table IIa, read-out: IC50 ATP-Assay after 72 h Hs578T
[13] = Homo sapiens, C8161 cells, read-out: IC50 Wound healing Assay C8161
[14] = SF763 cells, read-out: IC50 Wound healing Assay SF763
[15] = HS578T cell line, Table Ib, read-out: IC50 ATP-Assay HS578T after 72 h
[16] = Homo sapiens, A 172, A172 cells, read-out: IC50 Wound healing Assay A172
[17] = Homo sapiens, SF-126, SF126 cells, read-out: IC50 Wound healing Assay SF126
[18] = U118 cells, read-out: IC50 Wound healing Assay U118

SMILES | IC50 [1] | IC50 [2] | IC50 [3] | IC50 [4] | IC50 [5] | IC50 [6] | IC50 [7, 12] | IC50 [8] | IC50 [9] | IC50 [10] | melting point | IC50 [11, 13] | IC50 [11, 14] | IC50 [7, 15] | IC50 [11, 16] | IC50 [11, 17] | IC50 [11, 18]
COc1cc2c(Oc3ccc(NS(=O)(=O)c4ccccc4OC)cc3F)ccnc2cc1OCCCN1CCN(C)CC1 [Example 33, N-(3-Fluoro-4-{6-methoxy-7-[3-(4-methyl-piperazin-1-yl)-propoxy]-quinolin-4-yloxy}-phenyl)-2-methoxy-benzenesulfonamide] | ≤ 12.5 µM | 12.5 to 50 µM | ≤ 12.5 µM | ≤ 12.5 µM | 12.5 to 50 µM | ≤ 12.5 µM | ≤ 12.5 µM | ≤ 12.5 µM | ≤ 12.5 µM | ≤ 10 µM | 168 to 170 °C | ≤ 12.5 µM | 12.5 to 50 µM |  |  |  | 
COc1cc2c(Oc3ccc(NS(=O)(=O)c4ccccc4Cl)cc3F)ccnc2cc1OCCCN1CCCC(C)C1 (centres unmarked) [Example 38, 2-Chloro-N-(3-fluoro-4-{6-methoxy-7-[3-(3-methyl-piperidin-1-yl)-propoxy]-quinolin-4-yloxy}-phenyl)-benzenesulfonamide] | ≤ 12.5 µM | ≤ 12.5 µM | ≤ 12.5 µM | ≤ 12.5 µM | ≤ 12.5 µM | ≤ 12.5 µM | 12.5 to 50 µM | ≤ 12.5 µM | ≤ 12.5 µM | ≤ 10 µM | 115 to 118 °C | ≤ 12.5 µM | 12.5 to 50 µM | 12.5 to 50 µM | ≤ 12.5 µM | ≤ 12.5 µM | ≤ 12.5 µM
COc1cc2c(Oc3ccc(NS(=O)(=O)c4cccc(C#N)c4)cc3F)ccnc2cc1OCCCN1CCCC(C)C1 (centres unmarked) [Example 41, 3-Cyano-N-(3-fluoro-4-{6-methoxy-7-[3-(3-methyl-piperidin-1-yl)-propoxy]-quinolin-4-yloxy}-phenyl)-benzenesulfonamide] | ≤ 12.5 µM | ≤ 12.5 µM | ≤ 12.5 µM | ≤ 12.5 µM | ≤ 12.5 µM | ≤ 12.5 µM | ≤ 12.5 µM | 12.5 to 50 µM | ≤ 12.5 µM | ≤ 10 µM | 125 to 127 °C | 12.5 to 50 µM | ≤ 12.5 µM |  |  |  | 
COc1cc2c(Oc3ccc(NS(=O)(=O)c4ccc(F)cc4F)cc3F)ccnc2cc1OCCCN1CCCC(C)C1 (centres unmarked) [Example 47, 2,4-Difluoro-N-(3-fluoro-4-{6-methoxy-7-[3-(3-methyl-piperidin-1-yl)-propoxy]-quinolin-4-yloxy}-phenyl)-benzenesulfonamide] | 12.5 to 50 µM | ≤ 12.5 µM | 12.5 to 50 µM | ≤ 12.5 µM | ≤ 12.5 µM | ≤ 12.5 µM | ≤ 12.5 µM | ≤ 12.5 µM | ≤ 12.5 µM | ≤ 10 µM | 118 to 120 °C | ≤ 12.5 µM | ≤ 12.5 µM | ≤ 12.5 µM | ≤ 12.5 µM | ≤ 12.5 µM | ≤ 12.5 µM
COc1cc2c(Oc3ccc(NS(=O)(=O)c4cc(C)ccc4F)cc3F)ccnc2cc1OCCCN1CCCC(C)C1 (centres unmarked) [Example 55] | ≤ 12.5 µM | ≤ 12.5 µM | ≤ 12.5 µM | ≤ 12.5 µM | 12.5 to 50 µM | ≤ 12.5 µM | 12.5 to 50 µM | ≤ 12.5 µM | 12.5 to 50 µM | ≤ 10 µM | 149 to 151 °C | 12.5 to 50 µM | 12.5 to 50 µM | 12.5 to 50 µM |  |  | 
COc1cc2c(Oc3ccc(NS(=O)(=O)c4ccc(C)c(F)c4)cc3F)ccnc2cc1OCCCN1CCCC(C)C1 (centres unmarked) [Example 56, 3-Fluoro-N-(3-fluoro-4-{6-methoxy-7-[3-(3-methyl-piperidin-1-yl)-propoxy]-quinolin-4-yloxy}-phenyl)-4-methyl-benzenesulfonamide] | ≤ 12.5 µM | ≤ 12.5 µM | ≤ 12.5 µM | ≤ 12.5 µM | ≤ 12.5 µM | ≤ 12.5 µM | 12.5 to 50 µM | ≤ 12.5 µM | 12.5 to 50 µM | 10 to 25 µM | 174 to 176 °C | ≤ 12.5 µM | 12.5 to 50 µM | 12.5 to 50 µM |  |  | 
COc1cc2c(Oc3ccc(NS(=O)(=O)c4cccc(Oc5ccccc5)c4)cc3F)ccnc2cc1OCCCN1CCCC(C)C1 (centres unmarked) [Example 59, N-(3-Fluoro-4-{6-methoxy-7-[3-(3-methyl-piperidin-1-yl)-propoxy]-quinolin-4-yloxy}-phenyl)-3-phenoxy-benzenesulfonamide] | ≤ 12.5 µM | ≤ 12.5 µM | ≤ 12.5 µM | ≤ 12.5 µM | ≤ 12.5 µM | ≤ 12.5 µM | ≤ 12.5 µM | 12.5 to 50 µM | 12.5 to 50 µM | ≤ 10 µM | 146 to 147 °C | 12.5 to 50 µM | ≤ 12.5 µM | ≤ 12.5 µM |  |  | 
COc1cc2c(Oc3ccc(NS(=O)(=O)c4ccc(Cl)s4)cc3F)ccnc2cc1OCCCN1CCCC(C)C1 (centres unmarked) [Example 63, 5-Chloro-thiophene-2-sulfonic acid (3-fluoro-4-{6-methoxy-7-[3-(3-methyl-piperidin-1-yl)-propoxy]-quinolin-4-yloxy}-phenyl)-amide] | ≤ 12.5 µM | ≤ 12.5 µM | ≤ 12.5 µM | ≤ 12.5 µM | ≤ 12.5 µM | ≤ 12.5 µM | ≤ 12.5 µM | 12.5 to 50 µM | ≤ 12.5 µM | ≤ 10 µM | 100 to 103 °C | 12.5 to 50 µM | ≤ 12.5 µM | ≤ 12.5 µM |  |  | 
